Data: patent publication US9359358B2, “Cyclohexyl azetidine derivatives as JAK inhibitors” (Incyte Holdings Corporation, priority 2011, dated 2016)

Columns and labels:
[1] = target: T1, human JAK1 (Homo sapiens, UniProt P23458); assay: In Vitro JAK Kinase Assay (HTRF, phosphorylation of a biotinylated peptide), JAK1; format: biochemical; settings: Table 5; catalytic domain a.a. 837-1142, assay of Example A
T1 construct: human JAK1 (a.a. 837-1142); His tag (N); made in house; host or cells: insect cells (baculovirus)
T1 sequence (P23458 849-1154): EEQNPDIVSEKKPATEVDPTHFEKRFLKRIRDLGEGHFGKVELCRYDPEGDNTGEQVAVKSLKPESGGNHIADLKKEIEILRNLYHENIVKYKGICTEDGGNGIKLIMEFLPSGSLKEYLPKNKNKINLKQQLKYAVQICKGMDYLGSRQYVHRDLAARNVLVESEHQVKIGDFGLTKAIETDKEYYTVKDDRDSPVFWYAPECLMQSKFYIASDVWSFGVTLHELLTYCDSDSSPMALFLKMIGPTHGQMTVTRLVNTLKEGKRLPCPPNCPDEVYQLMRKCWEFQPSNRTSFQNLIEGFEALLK
Summary of the method: (§1)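 HTRF detection (SA-APC plus Eu-labeled anti-phosphotyrosine Py20, 40 min after EDTA stop) quantified biotinylated-peptide phosphorylation. Kinase reactions with human JAK1 or JAK2 catalytic domains lasted 1 h at room temperature.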

[2] = target: T2, human JAK2 (Homo sapiens, UniProt O60674); assay: In Vitro JAK Kinase Assay (HTRF, phosphorylation of a biotinylated peptide), JAK2; format: biochemical; settings: Table 5; assay of Example A
T2 construct: JAK2 (a.a. 828-1132); His tag (N); made in house; host or cells: insect cells (baculovirus)
T2 sequence (O60674 828-1132): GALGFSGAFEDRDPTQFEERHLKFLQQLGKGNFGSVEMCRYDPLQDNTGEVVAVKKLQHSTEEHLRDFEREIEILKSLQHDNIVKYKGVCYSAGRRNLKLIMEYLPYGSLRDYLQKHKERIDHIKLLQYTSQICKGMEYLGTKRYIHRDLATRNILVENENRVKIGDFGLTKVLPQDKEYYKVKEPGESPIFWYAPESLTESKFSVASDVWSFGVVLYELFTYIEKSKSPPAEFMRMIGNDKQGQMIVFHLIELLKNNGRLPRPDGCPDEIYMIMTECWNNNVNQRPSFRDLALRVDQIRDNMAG
Summary of the method: as §1

Row | IC50 [1] [nM] | JAK2/JAK1 IC50 ratio [2] | Structure (SMILES)
1 | < 10 | ≧10 | N#CCC1(n2cc(-c3ncnc4[nH]ccc34)cn2)CN([C@H]2CC[C@@H](Oc3cc(CN4CCOCC4)cc(C(F)(F)F)n3)CC2)C1 [Example 92, {1-(cis-4-{[4-(morpholin-4-ylmethyl)-6-(trifluoromethyl)pyridin-2-yl]oxy}cyclohexyl)-3-[4-(7H-pyrrolo[2,3-d]pyrimidin-4-yl)-1H-pyrazol-1-yl]azetidin-3-yl}acetonitrile tris(trifluoroacetate)]
2 | < 10 | ≧10 | CC1(NCc2cc(O[C@H]3CC[C@@H](N4CC(CC#N)(n5cc(-c6ncnc7[nH]ccc67)cn5)C4)CC3)nc(C(F)(F)F)c2)COC1 [Example 98, {1-(cis-4-{[4-{[(3-methyloxetan-3-yl)amino]methyl}-6-(trifluoromethyl)pyridin-2-yl]oxy}cyclohexyl)-3-[4-(7H-pyrrolo[2,3-d]pyrimidin-4-yl)-1H-pyrazol-1-yl]azetidin-3-yl}acetonitrile tetrakis(trifluoroacetate)]
3 | < 10 | ≧10 | N#CCC1(n2cc(-c3ncnc4[nH]ccc34)cn2)CN([C@H]2CC[C@@H](Oc3cc(Cn4ccnc4)cc(C(F)(F)F)n3)CC2)C1 [Example 99, {1-(cis-4-{[4-(1H-imidazol-1-ylmethyl)-6-(trifluoromethyl)pyridin-2-yl]oxy}cyclohexyl)-3-[4-(7H-pyrrolo[2,3-d]pyrimidin-4-yl)-1H-pyrazol-1-yl]azetidin-3-yl}acetonitrile tetrakis(trifluoroacetate)]
4 | < 10 | ≧10 | N#CCC1(n2cc(-c3ncnc4[nH]ccc34)cn2)CN([C@H]2CC[C@@H](Oc3cc(Cn4cccn4)cc(C(F)(F)F)n3)CC2)C1 [Example 100, {1-(cis-4-{[4-(1H-pyrazol-1-ylmethyl)-6-(trifluoromethyl)pyridin-2-yl]oxy}cyclohexyl)-3-[4-(7H-pyrrolo[2,3-d]pyrimidin-4-yl)-1H-pyrazol-1-yl]azetidin-3-yl}acetonitrile tris(trifluoroacetate)]

Second part, the compound before the results:

Row | Structure (SMILES) | IC50 [1] [nM] | JAK2/JAK1 IC50 ratio [2]
5 | C[C@H](CO)NC(=O)c1cc(O[C@H]2CC[C@@H](N3CC(CC#N)(n4cc(-c5ncnc6[nH]ccc56)cn4)C3)CC2)nc(C(F)(F)F)c1 [Example 85, 2-[(cis-4-{3-(cyanomethyl)-3-[4-(7H-pyrrolo[2,3-d]pyrimidin-4-yl)-1H-pyrazol-1-yl]azetidin-1-yl}cyclohexyl)oxy]-N-[(1R)-2-hydroxy-1-methylethyl]-6-(trifluoromethyl)isonicotinamide bis(trifluoroacetate)] | < 10 | ≧10
6 | N#CCC1(n2cc(-c3ncnc4[nH]ccc34)cn2)CN([C@H]2CC[C@@H](Oc3cc(C(=O)NC4CC4)cc(C(F)(F)F)n3)CC2)C1 [Example 86, 2-[(cis-4-{3-(cyanomethyl)-3-[4-(7H-pyrrolo[2,3-d]pyrimidin-4-yl)-1H-pyrazol-1-yl]azetidin-1-yl}cyclohexyl)oxy]-N-cyclopropyl-6-(trifluoromethyl)isonicotinamide bis(trifluoroacetate)] | < 10 | ≧10
7 | CN(C(=O)c1cc(O[C@H]2CC[C@@H](N3CC(CC#N)(n4cc(-c5ncnc6[nH]ccc56)cn4)C3)CC2)nc(C(F)(F)F)c1)C1CC1 [Example 87, 2-[(cis-4-{3-(cyanomethyl)-3-[4-(7H-pyrrolo[2,3-d]pyrimidin-4-yl)-1H-pyrazol-1-yl]azetidin-1-yl}cyclohexyl)oxy]-N-cyclopropyl-N-methyl-6-(trifluoromethyl)isonicotinamide bis(trifluoroacetate)] | < 10 | ≧10
8 | N#CCC1(n2cc(-c3ncnc4[nH]ccc34)cn2)CN([C@H]2CC[C@@H](Oc3cc(C(=O)N4CC(O)C4)cc(C(F)(F)F)n3)CC2)C1 [Example 89, {1-(cis-4-{[4-[(3-hydroxyazetidin-1-yl)carbonyl]-6-(trifluoromethyl)pyridin-2-yl]oxy}cyclohexyl)-3-[4-(7H-pyrrolo[2,3-d]pyrimidin-4-yl)-1H-pyrazol-1-yl]azetidin-3-yl}acetonitrile bis(trifluoroacetate)] | < 10 | ≧10
9 | N#CCC1(n2cc(-c3ncnc4[nH]ccc34)cn2)CN([C@H]2CC[C@@H](Oc3cc(C(=O)NC4CCC4)cc(C(F)(F)F)n3)CC2)C1 [Example 90, 2-[(cis-4-{3-(cyanomethyl)-3-[4-(7H-pyrrolo[2,3-d]pyrimidin-4-yl)-1H-pyrazol-1-yl]azetidin-1-yl}cyclohexyl)oxy]-N-cyclobutyl-6-(trifluoromethyl)isonicotinamide bis(trifluoroacetate)] | < 10 | ≧10
10 | N#CCC1(n2cc(-c3ncnc4[nH]ccc34)cn2)CN([C@H]2CC[C@@H](Oc3cc(C(=O)N4CC(C#N)C4)cc(C(F)(F)F)n3)CC2)C1 [Example 91, 1-[2-[(cis-4-{3-(cyanomethyl)-3-[4-(7H-pyrrolo[2,3-d]pyrimidin-4-yl)-1H-pyrazol-1-yl]azetidin-1-yl}cyclohexyl)oxy]-6-(trifluoromethyl)isonicotinoyl]azetidine-3-carbonitrile bis(trifluoroacetate)] | < 10 | ≧10
11 | N#CCC1(n2cc(-c3ncnc4[nH]ccc34)cn2)CN([C@H]2CC[C@@H](Oc3cc(CN4CC[C@@H](O)C4)cc(C(F)(F)F)n3)CC2)C1 [Example 95, {1-(cis-4-{[4-{[(3R)-3-hydroxypyrrolidin-1-yl]methyl}-6-(trifluoromethyl)pyridin-2-yl]oxy}cyclohexyl)-3-[4-(7H-pyrrolo[2,3-d]pyrimidin-4-yl)-1H-pyrazol-1-yl]azetidin-3-yl}acetonitrile pentakis(trifluoroacetate)] | < 10 | ≧10
12 | N#CCC1(n2cc(-c3ncnc4[nH]ccc34)cn2)CN([C@H]2CC[C@@H](Oc3cc(CN4CC[C@H](O)C4)cc(C(F)(F)F)n3)CC2)C1 [Example 96, {1-(cis-4-{[4-{[(3S)-3-hydroxypyrrolidin-1-yl]methyl}-6-(trifluoromethyl)pyridin-2-yl]oxy}cyclohexyl)-3-[4-(7H-pyrrolo[2,3-d]pyrimidin-4-yl)-1H-pyrazol-1-yl]azetidin-3-yl}acetonitrile tris(trifluoroacetate)] | < 10 | ≧10
